Where two headings read alike, the source gives them in different places.
Experiments:
[1] = test system: Carrageenin oedema in the rat; assay: Antiinflammatory activity - carrageenin oedema test (Winter method); type: in vivo; conditions: for PAW/VOLUME ml/10 - M ± ES 2h / PAW/VOLUME ml/10 - M ± ES 4h / PAW/VOLUME ml/10 - M ± ES 6h / PAW/VOLUME ml/10 - M ± ES 8h / PAW/VOLUME ml/10 - M ± ES 24h / PAW/VOLUME ml/10 - M ± ES Basal: equimolecular doses p.o. (ASA 100 mg/kg, TF 914 180 mg/kg) 30 minutes before carrageenin; for PAW/VOLUME ml/10 - M ± ES Basal: 10 animals; for AREAS Δ % M ± ES: area of the oedema curve; for AREAS Δ % M ± ES / AREAS inhib. vs. contr.: p.o. (ASA 100 mg/kg, TF 914 180 mg/kg); for AREAS inhib. vs. contr.: inhibition of area vs. control
Description: Antiinflammatory activity of TF 914 was evaluated by means of the carrageenin oedema test in the rat, according to the method of Winter, Rissly, Ness (Proc. Soc. Exp. Biol. Med., 1962, 111, 544), in comparison with acetylsalicylic acid at equimolecular doses.
The compound under test and acetylsalicylic acid, as a comparison, were administered by the oral route 30 minutes before subplantar injection of carrageenin. […]
The obtained results, which are shown in table 2, evidence the marked antiinflammatory activity of TF 914, said activity being higher than that of acetylsalicylic acid in equimolecular doses, under the experimental conditions used.

[2] = test system: Phenylquinone writhing in the mouse; assay: Analgesic activity - phenylquinone writhing test (Siegmund method); type: in vivo; conditions: for Mean number of writhings: equimolecular doses os (acetylsalicylic acid 100 mg/kg, TF 914 180 mg/kg) 30 min. before i.p. phenylquinone; for N. animals showing writhing / % inhib. vs. contr.: os (acetylsalicylic acid 100 mg/kg, TF 914 180 mg/kg); for % inhib. vs. contr.: writhings
Description: The analgesic activity was studied by the quinone writhing test in the mouse according to the method of Siegmund E. et al. (Proc. Soc. Exp. Biol. Med., 1957, 95, 729). TF 914 was orally administered, in comparison with acetylsalicylic acid, in equimolecular doses. The two drugs were administered 30 min. before intraperitoneal injection of phenylquinone.

[3] = test system: gastric mucosa; type: in vivo, rats
Description: The action of equimolecular doses of TF 914 and acetylsalicylic acid on gastric mucosa was evaluated by administering the products by the oral route to rats fasted for 18 hours at least.

[4] = test system: bronchosecretolytic activity; assay: Bronchosecretolytic activity (Mawatari method); type: in vivo, male Wistar rat; conditions: equimolecular doses os (TF 914 360 mg/kg, Thiola 200 mg/kg); 10 animals
Description: The bronchosecretolytic activity was evaluated in the male Wistar rat by oral administration of TF 914 ac cording to the method of Mawatari (Mawatari H. Kagoshima Daigaku Igaku-Zasshi- 27, 561, 1976), in comparison with Thiola®, in equimolecular doses.

[5] = Acute toxicity by single administration (LD50, Litchfield and Wilcoxon); conditions: in vivo
Description: Toxicity by single administrations of TF 914 was studied in the mouse and the rat, by oral and intraperitoneal route.
LD₅₀ values were calculated according to the method of Litchfield and Wilcoxon (J. Pharm. Exp. Therap., 1949, 96, 99).
The obtained results, which are summarized in table 1, evidenced that TF 914 has no toxicity.

[6] = Pharmacokinetics after oral administration, HPLC; type: in vivo; conditions: rat, equimolecular doses, vs. acetylsalicylic acid and Thiola
Description: The pharmakinetics studies on TF 914 were carried out in the rat, in comparison with acetylsalicylic acid and Thiola®, after oral administration of equimolecular doses of the three compounds.
Measurements were performed by HPLC.

[7] = test system: carrageenin induced pleuritis; assay: Antiinflammatory activity - carrageenin induced pleuritis test (Vinegar method); type: in vivo, rat; conditions: 5 h; for EXUDATE VOLUME ml: 100 mg/kg p.o. 1 hour before carrageenin; for N. LEUKOCYTES % inhib. vs. contr. / EXUDATE VOLUME % vs.contr. / N. LEUKOCYTES ml: 100 mg/kg p.o.; for EXUDATE VOLUME % vs.contr.: protection on exudate volume; for N. LEUKOCYTES ml: total number of leukocytes in pleuric exudate
Description: The antiinflammatory activity was tested by the carrageenin induced pleuritis test in the rat, according to the method of Vinegar R. et al. (Proc. Soc. Exp. Biol. Mod., 1973, 143, 3).
TF 914 and phenylbutazone as a control were administered orally in equiponderal doses, 1 hour before the carrageenin injection in the pleuric cavity.
Five hours later the animals were killed, and volume of the pleuric exudate and total number of leukocytes therein were evaluated.

Row | SMILES | PAW/VOLUME ml/10 - M ± ES 2h [1] | PAW/VOLUME ml/10 - M ± ES 4h [1] | PAW/VOLUME ml/10 - M ± ES 6h [1] | PAW/VOLUME ml/10 - M ± ES 8h [1] | PAW/VOLUME ml/10 - M ± ES 24h [1] | PAW/VOLUME ml/10 - M ± ES Basal [1] | AREAS Δ % M ± ES [1] | AREAS inhib. vs. contr. [1] | Mean number of writhings [2] | N. animals showing writhing [2] | % inhib. vs. contr. [2] [%] | % increase of FlNa in comparison with controls [4] [%] | EXUDATE VOLUME ml [7] | N. LEUKOCYTES % inhib. vs. contr. [7] | N. LEUKOCYTES ml [7] | also measured
1 | CC(=O)Oc1ccccc1C(=O)O [ASA, Acetylsalicylic acid, reference compound] | 58,3 ± 2,5 ml/10 | 66,0 ± 3,0 ml/10 | 59,3 ± 1,7 ml/10 | 52,8 ± 2,6 ml/10 | 45,3 ± 1,5 ml/10 | 43,1 ± 1,5 ml/10 | 161,5 ± 20,9% | 37,0 | 1.4 ± 0.9 | 3/10 | 89.06 |  |  |  |  | Ulcer size (mm) x ± es ([3]; equimolecular doses os (ASA 100 mg/kg, TF 914 180 mg/kg), rats fasted at least 18 hours, 6 hours after treatment): 3.6 ± 1.34 mm; gastro-injuring action (in words) ([3]; examination of the mucosa 6 hours after oral treatment, equimolecular doses): marked gastro-injuring effects
2 | CC(SC1(C)OC(=O)c2ccccc2O1)C(=O)NCC(=O)O (stereo not drawn) [TF 914, 2-methyl-2[1-(carboxy-methyl-amino-carbonyl)ethyl]thio-4-oxo-benzodioxane-1.3] | 53,3 ± 1,6 ml/10 | 60,4 ± 2,0 ml/10 | 61,8 ± 2,7 ml/10 | 54,5 ± 2,8 ml/10 | 45,1 ± 1,5 ml/10 | 42,8 ± 0,7 ml/10 | 145,4 ± 20,4% | 43,3 | 1.8 ± 1.1 | 3/10 | 85.93 | 35.6 | 1,79 ±0,25 ml | 19.5% | 10,84 ±1,32 ml | LD50 ([5]; ip, Mouse): > 3000 mg/kg; LD50 ([5]; po, Mouse, os): > 3000 mg/kg; LD50 ([5]; po, Rat, os): > 3000 mg/kg; bioavailability (in words) [6]: better bioavailability; persistence in blood stream (in words) [6]: remain in blood stream for longer periods; gastro-injuring action (in words) ([3]; rat, in vivo, po): substantially has no gastro-injuring action; N. LEUKOCYTES % inhib. vs. contr. ([7]; listed as MR 914): 19,5%; EXUDATE VOLUME % vs.contr. ([7]; 100 mg/kg): 27.2%; EXUDATE VOLUME % vs.contr. ([7]; listed as MR 914, 100 mg/kg): 27,2%
3 | CC(S)C(=O)NCC(=O)O (stereo not drawn) [Thiola®, reference compound] |  |  |  |  |  |  |  |  |  |  |  | 33.4 |  |  |  | 
4 | CCCCC1C(=O)N(c2ccccc2)N(c2ccccc2)C1=O [PHENYLBUTAZONE, phenylbutazone, reference compound] |  |  |  |  |  |  |  |  |  |  |  |  | 1,75 ±2,25 ml | 36,7% | 8,52 ±1,27 ml | EXUDATE VOLUME % vs.contr. [7]: 28,9%

— patent publication EP0272223A1, “4-Oxo-1,3-benzodioxane derivative” (FARMACEUTICI CABER S.p.A., priority 1987, dated 1988)
